Measured values reported in article PMC9899896, “Application of a new approach methodology (NAM)-based strategy for genotoxicity assessment of data-poor compounds” (Frontiers in Toxicology, 2023).
Like-named read-outs stand apart in the source and are kept apart here.

Experiments:
[1] = test system: HepaRG™ cells; design: method as in Buick et al., 2020; conditions: ref Buick et al., 2020; cited from earlier work
[2] = test system: HepaRG™ cells; design: method as in Buick et al., 2020; conditions: ref Buick et al., 2020; cited from earlier work; remark: listed apart in the source
[3] = test system: human lymphoblastoid TK6 cells; assay: TGx-DDI transcriptomic biomarker classification (TempO-Seq S1500+) and BMC modeling; conditions: for TGx-DDI summary classification: TK6 cells, 4H exposure; for Strength / consistency of TGx-DDI response (text): across concentrations and the three statistical analyses; for TGx-DDI classification: overall call from 2-DC, PCA, NSC-PA, S9 condition as in Figure 1
[4] = test system: human lymphoblastoid TK6 cells; assay: Integrated NAM-based test strategy (TGx-DDI + MicroFlow + MultiFlow; ToxPi integration of BMCs); conditions: from TGx-DDI, MicroFlow and MultiFlow calls
[5] = test system: human lymphoblastoid TK6 cells; assay: In vitro MicroFlow assay (flow cytometry-based micronucleus test); conditions: for MicroFlow summary classification (MN induction): TK6 cells, 4H exposure, 24-h sampling; for MicroFlow %MN response (text): positive: >2.5 fold-increase in %MN and p < 0.05 vs vehicle
[6] = test system: human lymphoblastoid TK6 cells; assay: MultiFlow DNA Damage assay (γH2AX, p53, p-H3, polyploidy); assay type: cell-based
Procedure: Treated cells were gently resuspended and 25 µL/well was mixed thoroughly with the labeling solution. The plate was incubated for 30 min at room temperature shielded from light.
The γH2AX and p53 endpoints were measured based on their median fluorescence intensity (i.e., mean channel fluorescence or MCF) relative to the DMSO solvent control. The p-H3 and polyploidy endpoints were measured based on their frequencies among all events (i.e., all 2n–4n and polyploidy (8n) DNA content). The equations for calculating γH2AX shift, nuclear p53 shift, % polyploidy, and % p-H3 positive events are shown below.
Latex microspheres were used as counting beads to determine nuclear density.
Litron developed Global Evaluation Factors (GEF) to identify a biologically significant increase in select biomarker levels.
A clastogenic or aneugenic call required two successive concentrations that met or exceeded the GEFs in at least 2 of the 4 respective MoA biomarkers. Chemicals that met or exceeded two GEFs in a single non-cytotoxic concentration were designated as “weak” responses. In cases where both clastogen and aneugen biomarkers exceeded the GEF the MoA was considered pan-genotoxic. In cases where less than two biomarkers met the GEFs, the call was non-genotoxic.

[7] = Viability assessment (propidium iodide fluorescence, flow cytometry); conditions: human, TK6 lymphoblastoid cells with S9
[8] = follow-up assay; ref Avlasevich et al., 2021; cited from earlier work
[9] = test system: MN; conditions: known apoptogens; ref Avlasevich et al., 2021; cited from earlier work
[10] = test system: %MN; design: method as in SCCP, 2006; conditions: ref SCCP, 2006, cited from earlier work
[11] = test system: chromosome damage; design: method as in De Boeck et al., 2005; conditions: ref De Boeck et al., 2005; cited from earlier work
[12] = test system: human lymphoblastoid TK6 cells
[13] = test system: chromosome damage; design: method as in Matsushima et al., 1999; Von Der Hude et al., 2000; conditions: ref Matsushima et al., 1999; Von Der Hude et al., 2000; cited from earlier work
[14] = test system: human lymphoblastoid TK6 cells; assay: Viability assessment (propidium iodide fluorescence, flow cytometry); conditions: TK6 cells, ± S9, quantified at 24 h via propidium iodide
[15] = +S9 (rat liver S9), 3 h recovery
[16] = +S9, TK6 cells, 4H and 24H sampling
[17] = -S9, TK6 cells, 4H and 24H sampling
[18] = GEF-based call, in at least one S9 condition
[19] = fold-increase over solvent control

For `COc1cc2c(c(OC)c1OC)-c1ccc(OC)c(=O)cc1[C@@H](NC(C)=O)CC2` [colchicine], the TGx-DDI classification [1] is listed as “negative (non-DDI)” and the MN result [2] is listed as “positive”.
For `Cc1ccc(NCCO)c([N+](=O)[O-])c1` [NSACB 8, 2-[(4-methyl-2-nitrophenyl)amino]ethanol], the TGx-DDI summary classification [3, 15] was “+”, the TGx-DDI summary classification ([3]; -S9) was “-” and the “Strength / consistency of TGx-DDI response (text)” value (shortened to “Strength / consistency”) ([3]; listed as 8) was “weaker DDI responses”. The “Strength / consistency” value ([3]; listed as NSACB #8) was “two DDI calls at the highest concentration by NSC-PA and PCA”, the “TGx-DDI classification” value [3] was “DDI” and the Integrated hazard conclusion [4] was “somewhat ambiguous”. The “MicroFlow summary classification (MN induction)” value (from here on “MicroFlow summary classification”) ([5]; +S9) was “+”, the “MicroFlow summary classification” value ([5]; -S9) was “-” and the “MicroFlow %MN response (text)” value ([5]; listed as 8) was “robust fold-increase in %MN with a clear concentration-response relationship”. The “MicroFlow %MN response (text)” value ([5]; listed as #8) was “only tested positive with S9 conditions”, the “MultiFlow summary classification (call and MoA)” value (shortened to “MultiFlow summary classification”) [6, 16] was “-” and the “MultiFlow summary classification” value [6, 17] was “-”. For the same compound, the “MultiFlow MoA classification” value [6, 18] was “non-genotoxic” and the viability at 24 h [7] was 46%.
With `Nc1ccc(Cl)cc1C(=O)c1ccccc1` [NSACB 1, 2-amino-5-chlorobenzophenone] the TGx-DDI summary classification [3, 15] was “+”, the TGx-DDI summary classification ([3]; -S9) was “-” and the “Strength / consistency” value ([3]; listed as #1) was “weaker DDI responses”. For the same compound, the “Strength / consistency” value ([3]; listed as NSACB #1) was “one DDI call at the highest concentration in the NSC-PA only”, the “TGx-DDI classification” value [3] was “DDI” and the Integrated hazard conclusion [4] was “somewhat ambiguous”. For the same compound, the “MicroFlow summary classification” value ([5]; +S9) was “+”, the “MicroFlow summary classification” value ([5]; -S9) was “+” and the “MicroFlow %MN response (text)” value [5] was “robust fold-increase in %MN with a clear concentration-response relationship”. The “MultiFlow MoA classification” value [6] was “non-genotoxic”, the “MultiFlow summary classification” value [6] was “-” and the “MultiFlow biomarkers with responses” value ([6]; human) was “moderate to robust response increase in one of the aneugenic biomarkers (i.e., 4H p-H3)”. The viability at 24 h [7] was 43%.
In the case of `C[C@H]1CCC/C=C/[C@@H]2C[C@H](O)C[C@H]2[C@H](O)/C=C/C(=O)O1` [brefeldin A], the MultiFlow classification [8] is listed as “non-genotoxicants” and the “MicroFlow MN result” value [9] is listed as “induce MN”.
For `COc1ccc(NCCO)cc1N` [NSACB 7, 2-[(3-amino-4-methoxyphenyl)amino]ethanol], the “In vitro micronucleus result (OECD 487)” value ([10]; with S9) is listed as “statistically significant and biologically relevant increase in the frequency of %MN”, the “In vitro micronucleus result (OECD 487)” value ([10]; without S9) is listed as “equivocal” and the TGx-DDI summary classification [3, 15] is listed as “+”. The TGx-DDI summary classification ([3]; -S9) was “+”, the “Strength / consistency” value [3] was “strongest responses” and the “TGx-DDI classification” value [3] was “DDI across all concentrations except the lowest”. For the same compound, the Integrated hazard conclusion [4] was “genotoxic in vitro, causing DNA damage via a clastogenic MoA”, the “MicroFlow summary classification” value ([5]; +S9) was “+” and the “MicroFlow summary classification” value ([5]; -S9) was “+”. For the same compound, the “MicroFlow %MN response (text)” value ([5]; listed as 7) was “robust fold-increase in %MN with a clear concentration-response relationship”, the “MicroFlow %MN response (text)” value ([5]; listed as NSACB #7) was “stronger %MN frequency in the +S9 condition at the highest concentration” and the “Strength of MultiFlow biomarker response (text)” value [6] was “more moderate responses”. The “MultiFlow summary classification” value [6, 16] was “+ C”, the “MultiFlow summary classification” value [6, 17] was “+ C” and the “MultiFlow MoA classification” value [6, 18] was “clastogens”. For the same compound, the “MultiFlow biomarkers with responses” value [6, 19] was 4H p53 and 4H ɣH2AX.
For “carbonyl cyanide m-chlorphenyl hydrazone [CCCP]”, the MultiFlow classification [8] is listed as “non-genotoxicants” and the “MicroFlow MN result” value [9] is listed as “induce MN”.
For `Cc1c2ccccc2c(C)c2c1ccc1ccccc12` [DMBA, 7,12-dimethylbenz[a]anthracene, reference compound], the “Strength / consistency” value [3] is listed as “strong TGx-DDI response”, the “TGx-DDI classification” value [3] is listed as “DDI” and the “Chromosome damage in vivo” value [11] is listed as “induce chromosome damage”. The TGx-DDI summary classification [12] was “+”, the “MicroFlow summary classification” value ([5]; +S9) was “+” and the “MicroFlow summary classification” value ([5]; -S9) was “+”. For the same compound, the “MicroFlow %MN response (text)” value [5] was “significant fold-increases in %MN”, the “MultiFlow summary classification” value [6, 16] was “+ C” and the “MultiFlow summary classification” value [6, 17] was “-”. For the same compound, the “MultiFlow biomarkers with responses” value [6, 19] was 4H & 24H ɣH2AX, the “Chromosome damage in vitro” value [13] was “induce chromosome damage” and the “Effect on cell viability” value [14] was “caused a decline in viability”.
